Laboratory results from US8741948B2, “Oral antimicrobial pharmaceutical compositions” (Cosmo Technologies Ltd., priority 2004, dated 2014).

Experiments:
Assay in all cases: MIC evaluation on pathogenic bacterial strains
Assay type in all cases: cell-based
[1] = test system: Proteus vulgaris (ATCC 13315)
Excerpt: (§1) In particular, the efficacy of rifamicin SV was verified by means of an evaluation of the MIC (Minimum Inhibiting Concentration) on specific pathogenic bacterial strains, such as, for example, Escherichia coli, […], Proteus vulgaris, Pseudomonas aeruginosa, Salmonella typhi and Enterobacter cloacae as shown in the following Table A.

[2] = test system: Enterobacter faecalis (ATCC 29212)
Excerpt: as §1

[3] = test system: Staphylococcus aureus (ATCC 25213)
Excerpt: as §1

[4] = test system: Escherichia coli (ATCC 30218)
Excerpt: as §1

[5] = test system: Pseudomonas aeruginosa (ATCC 27853)
Excerpt: as §1

[6] = test system: Salmonella typhi (ATCC 13331)
Excerpt: as §1

[7] = test system: Enterobacter cloacae (ATCC 17446431)
Excerpt: as §1

rifamicin SV
MIC (Minimum Inhibiting Concentration) [1]: 400 µg/mL
MIC (Minimum Inhibiting Concentration) [2]: 25 µg/mL
MIC (Minimum Inhibiting Concentration) [3]: <0.4 µg/mL
MIC (Minimum Inhibiting Concentration) [4]: 400 µg/mL
MIC (Minimum Inhibiting Concentration) [5]: >400 µg/mL
MIC (Minimum Inhibiting Concentration) [6]: >400 µg/mL
MIC (Minimum Inhibiting Concentration) [7]: >400 µg/mL
